Tested on: iSPNs in NAc shell slices
Assay: Whole-cell patch-clamp recording of iSPN excitability in NAc shell slices, drugs bath applied
Format: cell-based, mice
Procedure: Current clamp recordings were performed to quantify firing properties.
Sulpiride and Bicifadine were obtained from Tocris. CBR12909 was obtained from Sigma-Aldrich. Drugs were bath applied for at least 15 min to establish equilibrium in the tissue.

Cc1ccc(C23CNCC2C3)cc1 (stereo not drawn) [bicifadine]
excitability of iSPNs (slices from SNI mice, bath application 20 μM): decreased the excitability of iSPNs

CCN1CCCC1CNC(=O)c1cc(S(N)(=O)=O)ccc1OC (stereo not drawn) [sulpiride]
excitability of iSPNs (brain slices from sham mice, 5 μM): increased the excitability of iSPNs
excitability of iSPNs (slices from SNI mice, 5 μM): no detectable change in iSPNs excitability

Reference: patent publication US11419857B2, “Methods and compositions for treating pain” (Apkarian Technologies LLC, priority 2015, dated 2022)
